Target: nuclear receptor TLX (NR2E1) ligand-binding domain (Homo sapiens (Human), UniProt Q9Y466)
Assay: AlphaScreen assay detecting TLX-RIP140 NR box peptide interaction
Assay type: biochemical
Settings: for EC50 / Efficacy (fold increase): his-tagged TLX LBD, biotinylated RIP140-L6 peptide recruitment; for Emax: read-out: Relative efficacy (%)
Method: In these experiments, compounds from Example 1 were evaluated in a biochemical assay to characterize ligand binding to TLX by detecting alterations in the ability of the TLX ligand binding domain to recruit an NR box peptide derived from the nuclear receptor-interacting protein 1 (NRIP1; receptor-interacting protein 140 (RIP140) transcriptional cofactor. RIP140 has been previously identified as a TLX interacting protein (Corso-Diaz X, et al. (2016) Co-activator candidate interactions for orphan nuclear receptor NR2E1. BMC Genomics 17:832).
AlphaScreen (Perkin Elmer, Shelton, CT) technology was used to detect the TLX-RIP140 NR box peptide interaction. The AlphaScreen assay was performed as previously described using other nuclear receptors including ROR, FXR, LXR, VDR and RXR (Bettoun D J, et al., (2003) Mol Endocrinol 17:2320-2328; Bramlett K S, et al., (2003) Journal of Pharmacology and Experimental Therapeutics 307:291-296; Houck K A, at al., (2004) Mol Genet Metab 83:184-187; Kumar N, et al., (2010) Mol Pharmacol 77:228-236; and Wang Y, et al., (2010) ACS Chemical Biology: 1029-1034. The present experiments used the N-terminal his-tagged ligand-binding domain (LBD) of TLX (NovAliX SAS, Strasbourg, France) and an N-terminal biotinylated RIP140-L6 peptide with a N-terminal KGG linker, namely ([…] (aa484-513)).

Sequence of nuclear receptor TLX (NR2E1) ligand-binding domain (Q9Y466 155-383): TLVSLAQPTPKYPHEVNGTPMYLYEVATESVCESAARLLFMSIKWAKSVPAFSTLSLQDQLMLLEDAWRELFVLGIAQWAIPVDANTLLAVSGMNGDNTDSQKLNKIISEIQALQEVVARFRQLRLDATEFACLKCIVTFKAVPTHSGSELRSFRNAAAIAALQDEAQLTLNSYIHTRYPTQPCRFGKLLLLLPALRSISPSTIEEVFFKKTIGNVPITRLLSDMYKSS

| EC50 | Efficacy (fold increase) | Emax (relative to oleic acid = 100.0) | SMILES | Relative efficacy (%) (relative to oleic acid = 100.0) |
| --- | --- | --- | --- | --- |
| 1300 nM | 5.8 fold | 69% | CCCCCCC[C@H](C)/C=C(/C)C/C(C)=C/[C@H](C)CCCC(=O)O [Compound 2-E] |  |
| 1600 nM | 6.1 fold | 72.6% | CCCCCCC[C@H](C)/C=C(/C)C/C(C)=C/[C@@H](C)CCCC(=O)O [Compound 2-F] |  |
| 1600 nM | 6.5 fold | 77.4% | CCCCCC/C=C(/C)C/C(C)=C/[C@H](C)CCCCCC(=O)O [Compound 3-A] |  |
| 900 nM | 6.6 fold | 78.6% | CCCCCC/C=C(/C)C/C(C)=C/[C@@H](C)CCCCCC(=O)O [Compound 3-B] |  |
| 800 nM | 5.5 fold | 65.5% | CCCCC[C@@H](C)/C=C(/C)C/C(C)=C/[C@H](C)CCCCCC(=O)O [Compound 3-C] |  |
| 1200 nM | 6.1 fold | 72.6% | CCCCC[C@@H](C)/C=C(/C)C/C(C)=C/[C@@H](C)CCCCCC(=O)O [Compound 3-D] |  |
| 1000 nM | 6.3 fold | 75% | CCCCC[C@H](C)/C=C(/C)C/C(C)=C/[C@H](C)CCCCCC(=O)O [Compound 3-E] |  |
| 900 nM | 6.0 fold | 71.4% | CCCCC[C@H](C)/C=C(/C)C/C(C)=C/[C@@H](C)CCCCCC(=O)O [Compound 3-F] |  |
| 1500 nM | 6.6 fold | 78.6% | CCCC/C=C(/C)C/C(C)=C/[C@H](C)CCCCCCCC(=O)O [Compound 4-A] |  |
| 3000 nM | 7.1 fold | 84.5% | CCCC/C=C(/C)C/C(C)=C/[C@@H](C)CCCCCCCC(=O)O [Compound 4-B] |  |
| 1500 nM | 6.2 fold | 73.8% | CCC[C@@H](C)/C=C(/C)C/C(C)=C/[C@H](C)CCCCCCCC(=O)O [Compound 4-C] |  |
| 1600 nM | 6.2 fold | 73.8% | CCC[C@@H](C)/C=C(/C)C/C(C)=C/[C@@H](C)CCCCCCCC(=O)O [Compound 4-D] |  |
| 1300 nM | 5.7 fold | 67.9% | CCC[C@H](C)/C=C(/C)C/C(C)=C/[C@H](C)CCCCCCCC(=O)O [Compound 4-E] |  |
| 1900 nM | 6.0 fold | 71.4% | CCC[C@H](C)/C=C(/C)C/C(C)=C/[C@@H](C)CCCCCCCC(=O)O [Compound 4-F] |  |

Further lines, the molecule ahead of its results:

| SMILES | EC50 | Efficacy (fold increase) | Emax (relative to oleic acid = 100.0) | Relative efficacy (%) (relative to oleic acid = 100.0) |
| --- | --- | --- | --- | --- |
| CCCCCCCCCC/C=C(/C)C/C(C)=C/[C@H](C)CC(=O)O [Compound 1-A] | 2200 nM | 6.1 fold | 72.6% |  |
| CCCCCCCCCC/C=C(/C)C/C(C)=C/[C@@H](C)CC(=O)O [Compound 1-B] | 2400 nM | 6.5 fold | 77.4% |  |
| CCCCCCCCC[C@@H](C)/C=C(/C)C/C(C)=C/[C@H](C)CC(=O)O [Compound 1-C] | 3100 nM | 6.8 fold | 81% |  |
| CCCCCCCCC[C@@H](C)/C=C(/C)C/C(C)=C/[C@@H](C)CC(=O)O [Compound 1-D] | 3200 nM | 7.1 fold | 84.5% |  |
| CCCCCCCCC[C@H](C)/C=C(/C)C/C(C)=C/[C@H](C)CC(=O)O [Compound 1-E] | 1700 nM | 6.2 fold | 73.8% |  |
| CCCCCCCCC[C@H](C)/C=C(/C)C/C(C)=C/[C@@H](C)CC(=O)O [Compound 1-F] | 1900 nM | 7.2 fold | 85.7% |  |
| CCCCCCCC/C=C(/C)C/C(C)=C/[C@H](C)CCCC(=O)O [Compound 2-A] | 2500 nM | 6.6 fold | 78.6% |  |
| CCCCCCCC/C=C(/C)C/C(C)=C/[C@@H](C)CCCC(=O)O [Compound 2-B] | 3100 nM | 6.6 fold | 78.6% |  |
| CCCCCCC[C@@H](C)/C=C(/C)C/C(C)=C/[C@H](C)CCCC(=O)O [Compound 2-C] | 1500 nM | 6.6 fold | 78.6% |  |
| CCCCCCC[C@@H](C)/C=C(/C)C/C(C)=C/[C@@H](C)CCCC(=O)O [Compound 2-D] | 1300 nM | 5.8 fold | 69% |  |
| CCCCCCCC/C=C\CCCCCCCC(=O)O [Oleic Acid, oleic acid, reference compound] | 3600 nM | 8.4 fold |  | 100.0% |

From patent US20250134842A1, “FATTY ACID MIMETICS AS MODULATORS OF NUCLEAR RECEPTOR TLX (NR2E1)” (Trustees of Dartmouth College, priority 2023, published 2025)
